According to patent US20040265300A1, “Chimeric molecules containing a module able to target specific cells and a module regulating the apoptogenic function of the permeability transition pore complex (PTPC)” (priority 2001, published 2004):
pKd: −log10 of the molar value. Ends that are not written are not given here. Peptide text beside a SMILES is read from it. * marks the point of attachment. Biotin = O=C1N[C@H]2[C@H](CS[C@H]2CCCCC(=O)*)N1

Legend:
[1] = test system: permeability transition pore (PTP); experiment: Swelling of isolated mitochondria (large amplitude swelling, 90° light scattering); type: biochemical, rat; design: key to Induction of Mitochondrial swelling (sw): +++ rapid sw; ++ low sw; + very low sw; − no sw; settings: for Induction of Mitochondrial swelling (sw): 5 μM, t 20 min
Procedure: Mitochondria are purified from rat liver, as described (Costantini et al., 1996), and resuspended in 250 mM sucrose +0.1 mM EGTA +10 mM -tris[hydroxymethyl]methyl-2-Aminoethanesulfonic acid, pH=7.4). For the induction of PT, mitochondria (0.5 mg protein per ml) are resuspended in PT buffer (200 mM sucrose, 10 mM Tris-MOPS (pH 7.4), 5 MM Tris-succinate, 1 mM Tris-phosphate, 2 μM rotenone, and 10 μM EGTA-Tris), and monitored in an F4500 fluorescence spectrometer (Hitachi, Tokyo, Japan) for the 90° light scattering of light (545 nm) to determine large amplitude swelling after addition of 2 mM atractyloside (Atr), 1 μM cyclosporin A (CsA; Novartis, Basel, Switzerland), 5 μM CaCl2, and/or 0.5 to 20 μM of pTarg-pTox or pTarg-pSave. For the determination of the ΔΨm, mitochondria (0.5 mg protein per ml) are incubated in a buffer supplemented with 1μM rhodamine 123 (Molecular Probes, Eugene, OR) and the dequenching of rhodamine fluorescence (excitation 505 nm, emission 525 nm) is measured as described (Shimizu et al., 1998). Supernatants from mitochondria (6800 g for 15 min; then 20 000 g for 1 h; 4° C.) are frozen at −80° C. until determination of apoptogenic activity on isolated nuclei, DEVD-afc cleaving activity, and immunodetection of cytochrome c and AIF. Cytochrome c and AIF are detected by means of a monoclonal antibody (clone 7H8.2C12, Pharmingen) and a polyclonal rabbit anti-serum (Susin et al. 1999) respectively.

[2] = target: T1, purified ANT (Rattus norvegicus, UniProt Q05962); type: binding; settings: for binding to purified ANT: surface plasmon resonance; for pKd: one ANT concentration only, 50 nM, read-out: relative affinities of ANT for the peptide
T1 sequence (Q05962 1-298): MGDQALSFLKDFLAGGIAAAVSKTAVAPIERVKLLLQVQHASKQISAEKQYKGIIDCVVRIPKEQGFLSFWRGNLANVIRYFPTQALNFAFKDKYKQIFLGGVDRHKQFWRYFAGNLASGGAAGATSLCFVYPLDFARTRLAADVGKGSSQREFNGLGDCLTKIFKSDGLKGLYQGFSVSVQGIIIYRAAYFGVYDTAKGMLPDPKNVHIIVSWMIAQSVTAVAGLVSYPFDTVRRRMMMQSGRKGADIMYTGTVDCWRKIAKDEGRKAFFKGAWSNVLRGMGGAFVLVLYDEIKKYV
Procedure: (§1) Sensor Chips SA (streptavidin coated sensor chips) were used for immobilisation of the different peptides. Tox1 was immobilised at a density of 0.7 ng/mm^2, Tox0 at a density of 3.7 ng/mm^2,. Ctrl Tox0 at a density of 1.4 ng/mm^2, Tox5 at a density of 1 ng/mm^2, Tox6 at a density of 1 ng/mm^2, Save 1 at a density of 1.3 ng/mm^2, and the control peptide at a density of 0.8 ng/mm^2. Association and dissociation kinetics of ANT and VDAC interactions were followed at a rate of 10 μL/min for 10 minutes (5 minutes association and 5 minutes dissociation). The ligand was regenerated with a 1 minute flux of KSCN 3M. The obtained sensorgrams were analysed by the B1Aeval 3.1 software using the method of double references (Myszka D.G. 2000. Kinetic, equilibrium and thermodynamic analysis of macromolecular interactions with BIACORE. Methods Enzymol. 323:325-340). From the sensorgrams with the ligands were first substracted the sensorgrams obtained with the corresponding analyte solvents. A second substraction was performed with the sensorgrams obtained with the control peptide ligand. The control peptide for the Tox and Save peptides was biot-H19C corresponding to the sequence of the β2-adrenergic receptor (Lebesgue D., Wallukat G., Mijares A., Granier C., Argibay J., and Hoebeke J. (1998) An agonist-like monoclonal antibody to the human β 2-adrenergic receptor. Eur.J. Pharmacol. 348:123-133). The control peptide for Tox0 was Ctr1 Tox0.

[3] = target: purified VDAC (Homo sapiens, UniProt P21796); experiment: Surface plasmon resonance, immobilised peptides with purified VDAC; type: binding; settings: for specific binding of VDAC: 50 nM VDAC
Procedure: as §1

Chain of purified VDAC (P21796 whole entry, species assumed): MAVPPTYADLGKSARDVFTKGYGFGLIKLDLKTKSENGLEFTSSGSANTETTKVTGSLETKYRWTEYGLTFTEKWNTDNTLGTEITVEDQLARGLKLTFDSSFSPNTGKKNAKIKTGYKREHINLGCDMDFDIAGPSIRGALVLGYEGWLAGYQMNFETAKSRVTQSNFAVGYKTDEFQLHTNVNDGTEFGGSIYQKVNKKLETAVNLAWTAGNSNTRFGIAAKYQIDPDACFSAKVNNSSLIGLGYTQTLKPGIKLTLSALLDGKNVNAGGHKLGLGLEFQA

## Biot-CNGRC-GG-HFAIGCRHSAIG (Biotin-CNGRCGGHFAIGCRHSAIG; cysteine pairing not given here) [Ctr1Tox1]
[1]
  Induction of Mitochondrial swelling (sw): −

## Biot-CNGRC-GG-HFRIGCRHSRIG [Tox1]
[2]
  binding to purified ANT: Binds Purified ANT
[1]
  Induction of Mitochondrial swelling (sw): ++
[3]; VDAC concentrations ten times higher than ANT
  association of VDAC with the peptide ligand: extremely low association

## C=C1[C@@H]2CC[C@H]3[C@]4(C)C[C@H](O[C@@H]5O[C@H](CO)[C@@H](OS(=O)(=O)O)[C@H](OS(=O)(=O)O)[C@H]5OC(=O)CC(C)C)C[C@@H](C(=O)O)[C@H]4CC[C@]3(C2)[C@H]1O [Atractyloside, atractyloside, reference compound]
[1]; 600 μM
  Mitrochondrial swelling (sw) %: 110%

## C[C@H](NC(=O)[C@H](Cc1ccccc1)NC(=O)[C@H](Cc1ccc(O)cc1)NC(=O)[C@H](CCCNC(=N)N)NC(=O)[C@H](Cc1c[nH]c2ccccc12)NC(=O)[C@H](Cc1ccccc1)NC(=O)[C@H](CCC(N)=O)NC(=O)[C@@H](NC(=O)[C@H](CCCNC(=N)N)NC(=O)[C@H](CCCCN)NC(=O)[C@H](CC(=O)O)NC(=O)[C@H](CCCNC(=N)N)NC(=O)[C@H](CCCNC(=N)N)NC(=O)[C@H](CCCNC(=N)N)NC(=O)[C@H](CCC(N)=O)NC(=O)[C@H](CCCNC(=N)N)NC(=O)[C@H](CCCNC(=N)N)NC(=O)[C@H](CCCCN)NC(=O)[C@H](CCCCN)NC(=O)[C@H](CCCNC(=N)N)NC(=O)CCCC[C@@H]1SC[C@@H]2NC(=O)N[C@@H]21)[C@@H](C)O)C(=O)NCC(=O)N[C@@H](CC(N)=O)C(=O)O [Save1, Biot-RKKRRQRRR-DKRTQFWRYFAGN (hANT2)] (Biotin-RKKRRQRRRDKRTQFWRYFAGN-OH; C-terminus assumed)
[2]
  binding to purified ANT: Binds Purified ANT
[3]
  specific binding of VDAC: did not result in any specific binding

## Biot-CNGRC-GG-CNGRC [Ctr2Tox1]
[1]
  Induction of Mitochondrial swelling (sw): −

## [Ca+2] [Ca 2+, reference compound]
[1]; 100 μM
  Mitrochondrial swelling (sw) %: 100%

## C[C@@H](O)[C@H](NC(=O)[C@H](CCCNC(=N)N)NC(=O)[C@H](CCCCN)NC(=O)[C@H](CC(=O)O)NC(=O)CNC(=O)CNC(=O)[C@H](CS)NC(=O)[C@H](CCCNC(=N)N)NC(=O)CNC(=O)[C@H](CC(N)=O)NC(=O)[C@H](CS)NC(=O)CCCC[C@@H]1SC[C@@H]2NC(=O)N[C@@H]21)C(=O)N[C@@H](CCC(N)=O)C(=O)N[C@@H](Cc1ccccc1)C(=O)N[C@@H](Cc1c[nH]c2ccccc12)C(=O)N[C@@H](CCCNC(=N)N)C(=O)N[C@@H](Cc1ccc(O)cc1)C(=O)N[C@@H](Cc1ccccc1)C(=O)N1CCC[C@H]1C(=O)NCC(=O)N[C@@H](CC(N)=O)C(=O)O [Tox5, Biot-CNGRC-GG-DKRTQFWRYFPGN (hANT2m)] (Biotin-CNGRCGGDKRTQFWRYFPGN-OH; N-terminus and C-terminus assumed)
[2]
  pKd: 10.00
  binding to purified ANT: Binds Purified ANT
[1]
  Induction of Mitochondrial swelling (sw): ++
[3]
  specific binding of VDAC: did not result in any specific binding

## Biot-GG-HFRIGCRHSRIG [Ctr3Tox1]
[1]
  Induction of Mitochondrial swelling (sw): +

## C[C@H](NC(=O)CCCC[C@@H]1SC[C@@H]2NC(=O)N[C@@H]21)C(=O)N[C@@H](CS)C(=O)N[C@@H](CC(=O)O)C(=O)N[C@@H](CS)C(=O)N[C@@H](CCCNC(=N)N)C(=O)NCC(=O)N[C@@H](CC(=O)O)C(=O)N[C@@H](CS)C(=O)N[C@@H](Cc1ccccc1)C(=O)N[C@@H](CS)C(=O)NCC(=O)NCC(=O)N[C@@H](CC(=O)O)C(=O)N[C@@H](CCCCN)C(=O)N[C@@H](CCCNC(=N)N)C(=O)N[C@H](C(=O)N[C@@H](CCC(N)=O)C(=O)N[C@@H](Cc1ccccc1)C(=O)N[C@@H](Cc1c[nH]c2ccccc12)C(=O)N[C@@H](CCCNC(=N)N)C(=O)N[C@@H](Cc1ccc(O)cc1)C(=O)N[C@@H](Cc1ccccc1)C(=O)N1CCC[C@H]1C(=O)NCC(=O)N[C@@H](CC(N)=O)C(=O)O)[C@@H](C)O [Tox6, Biot-ACDCRGDCFC-GG-DKRTQFWRYFPGN (hANT2m)] (Biotin-ACDCRGDCFCGGDKRTQFWRYFPGN-OH; N-terminus and C-terminus assumed)
[2]
  pKd: 9.15
  binding to purified ANT: Binds Purified ANT
[1]
  Induction of Mitochondrial swelling (sw): ++
[3]
  specific binding of VDAC: did not result in any specific binding
